Test results from patent US10815237B2, “Antimicrobials and methods of making and using same” (BIOVERSYS AG, priority 2016, dated 2020).

Assays:
[1] = test system: Staphylococcus aureus (S. aureus) 11540 strain; assay: standard microdilution MIC, S. aureus; assay type: cell-based; conditions: for MIC: Staphylococcus aureus
Experimental: (§1) The in vitro activity of the compounds of the present disclosure can be determined. Antimicrobial testing is typically performed to determine the minimum inhibitory concentration (MIC). Minimum inhibitory concentrations (MICs) are determined by the microdilution method in a final volume of 100 μl according to protocols outlined by The Clinical and Laboratory Standards Institute (CLSI). Performance standards for reference strains are assessed within the same experimental design to maintain quality control. See, for example, Clinical Laboratory Standards Institute: Methods for dilution antimicrobial susceptibility tests for bacteria that grow aerobically M7-A8. Approved Standard-Eighth Edition. Wayne, Pa.: CLSI; December 2008; and Clinical Laboratory Standards Institute: Performance Standards for Antimicrobial Susceptibility Testing M100-S20; Approved Standard-Twentieth Edition. Wayne, Pa.: CLSI; June 2010.
(§2) The compounds of the present disclosure were tested for antimicrobial activity. The Compounds 1-23 were run against Eschericia coli (E. coli) strain ATCC25922 and against Staphylococcus aureus (S. aureus) 11540 strain using a standard microdilution assay to determine minimum inhibitory concentrations (MICs). […] It will be recognized by one skilled in the art that the compounds can be assessed against other bacterial organisms and that the presentation of data for activity against Eschericia coli and Staphylococcus aureus are illustrative and in no way is intended to limit the scope of the present disclosure. The compounds of the present disclosure can be assayed against a range of other microorganisms depending upon the performance activity desired to be gathered. Furthermore, the “+” and “−” representation and the selection of a cutoff value of 16 micrograms/mL is also illustrative and in no way is intended to limit the scope of the present disclosure.

[2] = test system: Eschericia coli (E. coli) strain ATCC25922; assay: standard microdilution MIC, E. coli; assay type: cell-based, Escherichia coli; conditions: for MIC: Escherichia coli
Experimental: as §1, §2

[3] = test system: Chinese hamster ovary (CHO) cells; assay: cytotoxicity against CHO cell line (Cell Titer Blue); assay type: cell-based; conditions: CHO-K1 cells, 24 hours incubation, percent cell kill
Experimental: The compounds of the present disclosure were tested for cytotoxicity against Chinese hamster ovary (CHO) cells.
The assay was performed by seeding CHO—K1 in F12K medium containing 13.33% Fetal Bovine Serum […]. 37.5 μl of cell suspension at a concentration of 9,500 cells/well was plated into each column of a 384-well black clear bottom assay plate with the exception of a negative (no cell) control column, and allowed to adhere for 2 hours. The culture media was then removed from the 175 cm^2 flask(s) and the cell monolayer washed with 10 mL of Phosphate Buffered Saline PBS. 3 mL of Cellstripper™ was then added and the flask was incubated for approximately 5 min at 37° C. The cells were dissociated by agitation and 7 mL of F 12K medium containing 10% FBS was added to the flask. A homogeneous cell suspension was obtained by trituration of the flask. The cells were counted with a hemocytometer by diluting an aliquot of the cell suspension in PBS with 0.4% trypan blue. Typically, a ratio of 100 μl cell suspension to 1800 μl PBS to 100 μl trypan blue was used.
The volume of cell suspension containing the number of cells needed to seed the plate(s) (15.2 mL containing 3.8×10^6 cells) was calculated and transferred to a 50 mL centrifuge tube with the appropriate volume of media. 37.5 μl of cells were added to each well of the 384 well plate except for the negative (no cell) control column. A cytotoxicity 100-fold dilution plate was then prepared by manually pipetting 18 μl of 100% DMSO into two columns of an empty low volume dilution plate. 2 μl of a 50 mM solution of compounds 1-23 from the translation plate were manually pipetted into the corresponding columns of the 100-fold dilution plate. 10 μl of 100% DMSO was manually pipetted into all remaining columns of the 100-fold plate.
A 4-fold cytotoxicity plate was prepared beforehand by manually pipetting 48 μl of F12K media (without DMSO and without FBS) into each well of a matrix 384 well plate. The test samples in the 100-fold dilution plate were mixed and diluted. Ten 2-fold dilutions were performed for each compound in duplicate. The 384 cannula array then transferred 2 μl to the 48 μl of media in the cytotoxicity 4-fold dilution plate. The array was then mixed and 12.5 μl of samples from the cytotoxicity 4-fold dilution plate were transferred to the 37.5 μl of cells and media. The final top concentration of samples at this point in the procedure was 50 μM with 10 subsequent 1:2 dilutions down to […]. The final DMSO concentration were 1% and the final concentration of FBS was 10%.
Cycloheximide was run as a control. Specifically, Cycloheximide was diluted to 0.1 mM from 100 mM stock […] and was added to the cytotoxicity 100-fold plate. Upon addition to the cell plate, a range of 1 μM to 1 nM of cycloheximide was run.
A column separate from the one (referred to above) that served as the negative control was used for cell control wells to which only media was added.
The plates were then incubated for 24 hours at 37° C. and 5% CO2. […] The two columns used earlier to prepare the 100-fold dilution plate by pipetting 18 μl of 100% DMSO contained the samples tested at 200 μM. After the 24 hour incubation period, the 4 μl of Cell Titer blue was added to each well using a Multichannel Matrix pipettor. The plates were returned to the incubator and incubated for an additional 5 hours. Fluorescence (530 nm excitation wavelength/590 nm emission wavelength) was measured on a Wallac Victor microplate reader.
Cell viability was assessed fluorometrically after a 5 hour incubation with resazurin (Cell Titer Blue™), which is reduced by living cells to the fluorescent resorufin.
The average fluorescence for the negative control was determined to obtain the average blank fluorescence. The average blank fluorescence was subtracted from the fluorescence values obtained for all the test agents. The resulting values are the corrected fluorescence. […]

SMILES | MIC [1] [mg/L] | MIC [2] [mg/L] | IC50 ([3]; Cricetulus griseus, 24 h) [µM] | MIC S. aureus [1] | MIC E.coli [2] | IC50 [3] [µM]
C[C@H](N)CCCc1cc(Cl)c(F)c(-c2cc3cn(-c4ccc([C@@H]5CCC[C@@H](CCNC(=N)CN)N5CCCF)c(F)c4)c(=O)nc3[nH]2)c1 [Compound 46] | ≤ 16 | ≤ 16 | > 100 |  |  | 
CSC[C@H](N)CCCc1cc(Cl)c(F)c(-c2cc3cn(-c4ccc([C@@H]5CCC[C@@H](CCNC(=N)CN)N5)cc4)c(=O)nc3[nH]2)c1 [Compound 19] | ≤ 16 | ≤ 16 | > 100 |  |  | 
C[C@H](N)CCCc1cc(-c2cc3cn(-c4ccc([C@@H]5CCC[C@@H](CCNC(=N)CN)N5CCCF)cc4)c(=O)nc3[nH]2)cc(C(F)(F)F)c1 [Compound 23] | ≤ 16 | ≤ 16 | > 100 |  |  | 
C=C[C@@H](CCNC(=N)CN1CCSCC1)NCc1ccc(-n2cc3cc(-c4cc(CCC[C@H](C)N)cc(Cl)c4F)[nH]c3nc2=O)cc1 [Compound 7] | ≤ 16 | ≤ 16 | > 100 |  |  | 
N=C(CN)NCC[C@@H]1CCC[C@@H](c2ccc(-n3cc4cc(-c5cc(CCC[C@@H](N)C6CC6)cc(Cl)c5F)[nH]c4nc3=O)cc2F)N1CCCF [Compound 47] | ≤ 16 | ≤ 16 | 50.5 |  |  | 
C[C@H](N)CCCc1cc(Cl)c(F)c(-c2cc3cn(-c4ccc([C@@H]5CCC[C@@H](CCNC(=N)[C@@H](N)CO)N5)cc4)c(=O)nc3[nH]2)c1 [Compound 57] | ≤ 16 | ≤ 16 | > 100 |  |  | 
CSc1cc(-n2cc3cc(-c4cc(CCC[C@H](C)N)cc(Cl)c4F)[nH]c3nc2=O)ccc1[C@@H]1CCC[C@@H](CCNC(=N)CN)N1CCCF [Compound 49] | ≤ 16 | ≤ 16 | 21.1 |  |  | 
N=C(CN)NCC[C@@H]1CCC[C@@H](c2ccc(-n3cc4cc(-c5cc(CCC[C@@H](N)C6CC6)cc(C(F)(F)F)c5)[nH]c4nc3=O)cc2F)N1CCCF [Compound 43] | ≤ 16 | ≤ 16 | > 100 |  |  | 
C[C@H](N)CCCc1cc(Cl)c(F)c(-c2cc3cn(-c4ccc([C@@H]5CCC[C@@H](CCNC(=N)CN)N5)cc4)c(=O)nc3[nH]2)c1 [Compound 14] |  |  |  | + (the compound has an MIC value of 16 micrograms/mL or less) | + (the compound has an MIC value of 16 micrograms/mL or less) | > 100
COC[C@H](N)CCCc1cc(OC(F)(F)F)c(F)c(-c2cc3cn(-c4ccc([C@@H]5CCC[C@@H](CCNC(=N)CN)N5)cc4)c(=O)nc3[nH]2)c1 [Compound 11] | ≤ 16 | ≤ 16 | > 100 |  |  | 
CSc1cc(-n2cc3cc(-c4cc(CCC[C@@H](N)C5CC5)cc(C(F)(F)F)c4)[nH]c3nc2=O)ccc1[C@@H]1CCC[C@@H](CCNC(=N)CN)N1CCCF [Compound 53] | ≤ 16 | ≤ 16 | > 100 |  |  | 
C=C[C@H](N)CCCc1cc(-c2cc3cn(-c4ccc([C@@H]5CCC[C@@H](CCNC(=N)CN)N5CCCF)c(SC)c4)c(=O)nc3[nH]2)cc(C(F)(F)F)c1 [Compound 55] | ≤ 16 | ≤ 16 | > 100 |  |  | 
CSc1cc(-n2cc3cc(-c4cc(CCC[C@H](C)N)cc(Cl)c4F)[nH]c3nc2=O)ccc1[C@@H]1CCC[C@@H](CCNC(=N)CN)N1 [Compound 10] | ≤ 16 | ≤ 16 | > 100 |  |  | 
C=C[C@H](N)CCCc1cc(Cl)c(F)c(-c2cc3cn(-c4ccc([C@@H]5CCC[C@@H](CCNC(=N)CN)N5CCCF)cc4)c(=O)nc3[nH]2)c1 [Compound 64] | ≤ 16 | ≤ 16 | > 100 |  |  | 
N=C(CN)NCC[C@@H]1CCC[C@@H](c2ccc(-n3cc4cc(-c5cc(CCC[C@@H](N)C6CC6)cc(Cl)c5F)[nH]c4nc3=O)cc2)N1 [Compound 12] | ≤ 16 | ≤ 16 | > 100 |  |  | 
C=C[C@@H](CCNC(=N)CN1CC[C@H](F)C1)NCc1ccc(-n2cc3cc(-c4cc(CCC[C@H](C)N)cc(Cl)c4F)[nH]c3nc2=O)cc1 [Compound 5] | ≤ 16 | ≤ 16 | > 100 |  |  | 
C[C@H](N)CCCc1cc(-c2cc3cn(-c4ccc([C@@H]5CCC[C@@H](CCNC(=N)CN)N5)cc4)c(=O)nc3[nH]2)cc(C(F)(F)F)c1 [Compound 17] | ≤ 16 | ≤ 16 | > 100 |  |  | 
N=C(CN)NCC[C@@H]1CCC[C@@H](c2ccc(-n3cc4cc(-c5cc(CCC[C@@H](N)C6CC6)cc(Cl)c5F)[nH]c4nc3=O)cc2)N1CCCF [Compound 45] | ≤ 16 | ≤ 16 | > 100 |  |  | 
C[C@H](N)CCCc1cc(Cl)c(F)c(-c2cc3cn(-c4ccc([C@@H]5CCC[C@@H](CCNC(=N)CN)N5CCCF)cc4)c(=O)nc3[nH]2)c1 [Compound 20] | ≤ 16 | ≤ 16 | > 100 |  |  | 
C[C@H](N)CCCc1cc(Cl)c(F)c(-c2cc3cn(-c4cc(F)c([C@@H]5CCC[C@@H](CCNC(=N)CN)N5)c(F)c4)c(=O)nc3[nH]2)c1 [Compound 15] | ≤ 16 | ≤ 16 | > 100 |  |  | 
CSc1cc(-n2cc3cc(-c4cc(CCC[C@H](C)N)cc(Cl)c4F)[nH]c3nc2=O)cc(F)c1[C@@H]1CCC[C@@H](CCNC(=N)CN)N1CCCF [Compound 50] | ≤ 16 | ≤ 16 | 10.1 |  |  | 
C[C@H](N)CCCc1cc(Cl)c(F)c(-c2cc3cn(-c4ccc([C@@H]5CCC[C@@H](CNC(=N)CN)N5)cc4)c(=O)nc3[nH]2)c1 [Compound 68] | ≤ 16 | ≤ 16 | 85.3 |  |  | 
